Data set [1] has as its system epimastigote forms of the T. cruzi Y strain. Further details: method as in PMID 17015964. To be noted: cited from earlier work.
Data set [2] has as its system epimastigote forms of the T. cruzi H6 strain. More on the design: method as in PMID 12230115. The following applies: cited from earlier work.
Data set [3] is described as follows: Cytotoxicity in murine spleen cells (propidium iodide, flow cytometry). Type of data set: cell-based, Swiss mice (Mus musculus). The following applies: Swiss, mouse, 95% confidence limits in parentheses. The method, then:
The cytotoxicity of DBNs 1–4 was determined using the propidium iodide and trypan blue methodologies. To assess the cytotoxic activity using propidium iodide, mice spleen cells were sown at a concentration of 6.5 × 10^6 cells/mL in a 24-well plate. DBNs 1, 2, 3, 4, and BZN were added at concentrations ranging from 1.95 to 250 µM and incubated for 24 h at 37 °C in a 5% CO2 humidified incubator (Sanyo). After the incubation period, the cells were harvested and incubated with a 10 µg/mL propidium iodide solution (Sigma-Aldrich, St. Louis, MO, USA). The cell acquisition was performed within 15 min using a flow cytometer (BD-FACSCanto™II; BD Biosciences, BR), and cell counting was used to obtain the CC50 (50% cytotoxic concentration).
Background: In flow cytometry, cells or beads pass a laser one at a time.

A short description of data set [4]: Cytotoxicity in LLC-MK2 cells (trypan blue). Format: cell-based, Monkey (Macaca mulata). To be noted: rhesus monkey (Macaca mulatta), 95% confidence limits in parentheses. As for the experimental part:
To assess the cytotoxic activity of DBNs 1–4 using trypan blue, LLC-MK2 cells were sown at a concentration of 2 × 10^5 cells per well in 96-well plates. DBNs 1, 2, 3, 4, and BZN previously dissolved with DMSO were added to achieve the concentration range of 6.25-100 µM and incubated at 37 °C in a 5% CO2 humidified incubator (Sanyo) for 72 h. Next, the cells were trypsinized for 30 s, and then 10 μL of the supernatant was stained with 10 μL of a 0.4% trypan blue solution (Synth, São Paulo, Brazil). Cell counting was performed using transmitted light microscopy (Nikon) with 40X magnification using a Neubauer’s chamber (Global Glass), with a total of 100 cells being counted, where cellsstained blue were considered non-viable. Cell counting was used to obtain the CC50.

Data set [5] has as its system amastigotes forms of the T. cruzi Y strain. The experiment in a line: In vitro antitrypanosomal activity against amastigotes of moderately drug-resistant T. cruzi Y strain (Giemsa counting in LLC-MK2 cells). Type of data set: cell-based, Trypanosoma cruzi. To be noted: for IC50: Trypanosoma cruzi, LLC-MK2, amastigotes, after 72 h, 95% confidence limits in parentheses; for SI Y Strain: CC50 of LLC-MK2 divided by IC50 at 72 h.

Data set [6] has as its system Erythrocytes. Description: Hemolytic activity on defibrinated sheep blood. The following applies: sheep red blood cells, 30 min, 37 °C. Format: cell-based. As for the experimental part:
The hemolytic activity was determined as described by Kaplum and co-workers with adaptations. Defibrinated sheep blood was diluted in 0.9% saline solution. Neolignans 1, 2, 3, 4, and BZN were solubilized in DMSO (Sigma-Aldrich, St. Louis, MO, USA) and added to microtubes containing red blood cells in concentrations from 6.25 to 100 µM. […] Distilled water was used as a positive control, and a 0.9% saline solution with 0.1% DMSO was used as the negative control.

The subject of data set [7] is trypomastigote forms of the T. cruzi Y strain. Further details: method as in PMID 21570099. To be noted: cited from earlier work.
Data set [8] concerns 60 humor tumor cell lines. Further details: method as in PMID 10639289. The following applies: molar drug concentration required for 50% growth inhibition; cited from earlier work.
Data set [9] has as its system chloroquine-resistant Plasmodium falciparum (strain K1). Further details: method as in PMID 15653333. The following applies: cited from earlier work.
Data set [10] has as its system Leishmania donovani axenic amastigotes. More on the design: method as in PMID 15653333. The following applies: cited from earlier work.
For data set [11], the system named is Leishmania donovani infected macrophage. Further details: method as in PMID 15653333. To be noted: cited from earlier work.
Data set [12] has as its system trypomastigote forms of Trypanosoma brucei rhodiense. Further details: method as in PMID 15653333. The following applies: cited from earlier work.
The mark [13] stands for this setting: value in parentheses, read-out: IC50.

In brackets after ≈: the same amount, converted by molar mass. Like-named read-outs stand apart in the source and are kept apart here. Some results are limits rather than exact numbers.

One may read the IC50 as the concentration that inhibits the measured activity by half. Consider Eupatemoid-3, for which the IC50 in data set [1] is 26.3 µg/mL; in data set [1] (setting [13]) it was 90.9 µM.

As to `C/C=C/c1cc(OC)c2c(c1)[C@H](C)[C@@H](c1ccc(O)c(OC)c1)O2` [licarin A], the half-inhibitory concentration (IC50) in data set [2] is 123 µM.

For orientation: CC50 means the concentration that lowers cell viability or growth by half. A word on the melting point: it is the temperature, or range, at which the solid turns liquid. `COC(=O)C=Cc1ccc2c(c1)C(C(=O)OC)C(c1ccc(OC(C)=O)cc1)O2` (stereo not drawn) [Compound 4] yielded a melting point of 103 to 105 °C. In addition, the CC50 at 24 h in [3] was determined as 51.1 µM. Moreover, in data set [4], the CC50 at 72 h was 67.5 µM. In addition, the IC50 in [5] is more than 25 µM. Also, the “CH50 Erythrocytes” value in data set [6] is given as more than 100 µM.

The molecule `COC(=O)/C=C/c1ccc2oc(-c3ccc(O)cc3)c(C(=O)OC)c2c1` [Compound 7] returned a melting point of 204 to 206 °C.

Regarding `C/C=C/c1cc(OC)c2c(c1)[C@H](C)[C@@H](c1ccc(O)c(OC)c1)O2` [(-)-licarin], the IC50 in data set [7] is 23.5 µM.

For `C/C=C/c1ccc2oc(-c3ccc(O)cc3)c(C)c2c1` [eupomatenoid-6], the IC50 in data set [1] was 7.5 µg/mL; in data set [1] (setting [13]), 28.4 µM.

With `C/C=C/c1ccc2c(c1)[C@@H](C)[C@H](c1ccc(O)cc1)O2` [conocarpan], the IC50 is 8.0 µg/mL in data set [1] and 30 µM in [1] (setting [13]).

What is called GI50 is the concentration giving 50% growth inhibition. As to `COC(=O)C=Cc1cc(O)c2c(c1)C(C(=O)OC)C(c1ccc(O)c(O)c1)O2` (stereo not drawn) [Compound 3], the cytotoxic concentration (CC50) at 24 h in [3] was less than 1.95 µM. Besides, the CC50 at 72 h in data set [4] turned out to be 30.8 µM. Moreover, the IC50 in data set [5] was more than 25 µM. In addition, the “CH50 Erythrocytes” value in [6] is recorded as more than 100 µM. In addition, the concentration for 50% growth inhibition (GI50) in data set [8] is 0.3 µM.

In the case of `CCCCOC(=O)C=Cc1cc(O)c2c(c1)C(C(=O)OCCCC)C(c1ccc(O)c(O)c1)O2` (stereo not drawn), the 50% inhibitory concentration (IC50) in data set [9] is on record as 0.43 µg/mL (≈ 0.914 µM); in [10], 0.12 µg/mL (≈ 0.255 µM); in data set [11], 0.19 µg/mL (≈ 0.404 µM); in [12], 0.29 µg/mL (≈ 0.616 µM).

`OCCCc1ccc2c(c1)C(CO)C(c1ccc(O)cc1)O2` (stereo not drawn) [Compound 14]: the melting point was 120 to 121 °C.

With `O=C(Cn1ccnc1[N+](=O)[O-])NCc1ccccc1` [BZN, benznidazole, reference compound], the CC50 at 24 h in [3] worked out at 1.81 µM. The CC50 at 72 h in [4] was 43.2 µM. In data set [5], the “SI Y Strain” value stood at 12.13 and the IC50 came to 3.56 µM.

Molecule `COC(=O)CCc1ccc2c(c1)C(C(=O)OC)C(c1ccc(O)cc1)O2` (stereo not drawn) [Compound 12] returned a melting point of 108 to 110 °C.

As for (±)-licarin, the 50% inhibitory concentration (IC50) in data set [7] was 127 µM.

Turning to `C/C=C/c1cc(OC)c2oc(-c3ccc(O)c(OC)c3)c(C)c2c1` [eupomatenoid-7], the IC50 in [2] was 77 µM.

In the case of `COC(=O)C=Cc1cc(OC)c2c(c1)C(C(=O)OC)C(c1ccc(OC(=O)c3ccccc3)c(OC)c1)O2` (stereo not drawn) [Compound 11], the melting point is 109 to 111 °C.

Take `COC(=O)C=Cc1ccc2c(c1)C(C(=O)OC)C(c1ccc(O)cc1)O2` (mixture of isomers) [Compound 1, (±)-trans-dehydrodicoumarate dimethyl ester]: the CC50 at 24 h in data set [3] came to 49.9 µM. Besides, the cytotoxic concentration (CC50) at 72 h in data set [4] came out at 70.9 µM. Besides, in data set [5], the “SI Y Strain” value is 21.73 and the IC50 is 3.26 µM. In data set [6], the “CH50 Erythrocytes” value is given as more than 100 µM.

In the case of eupomatenoid-5, the IC50 was 7.0 µg/mL in data set [1] and 23.8 µM in data set [1] (setting [13]).

Consider `C/C=C/c1cc(OC)c2c(c1)[C@@H](C)[C@H](c1ccc(O)c(OC)c1)O2` [(+)-licarin], for which the IC50 in data set [7] is 87.7 µM.

With `COC(=O)C=Cc1cc(OC)c2c(c1)C(C(=O)OC)C(c1ccc(O)c(OC)c1)O2` (stereo not drawn) [Compound 2], in data set [3], the CC50 at 24 h was 34.2 µM. In [4], the 50% cytotoxic concentration (CC50) at 72 h is 67.6 µM. Moreover, in [5], the IC50 is more than 25 µM. For the same molecule, the “CH50 Erythrocytes” value in [6] is more than 100 µM.

`OCC=Cc1ccc2c(c1)C(CO)C(c1ccc(O)cc1)O2` (stereo not drawn) [Compound 9]: the melting point lay within 139 to 140 °C.

The record behind these values is publication PMC10052957, “Exploring Synthetic Dihydrobenzofuran and Benzofuran Neolignans as Antiprotozoal Agents against Trypanosoma cruzi” (Pharmaceutics, 2023).
